Measurements: ChEMBL document CHEMBL3352629, “Hydroxamic acid based histone deacetylase inhibitors with confirmed activity against the malaria parasite” (Bioorg Med Chem Lett, 2015)
pIC50: −log10 of the molar value. Activity calls are given as the source filed them. The rule behind the calls is not given here.

Test system: Leishmania donovani
Assay: Antiprotozoan activity against Leishmania donovani MHOM- ET-67/L82 amastigotes
Assay type: functional, organism-based
Conditions: Leishmania donovani, MHOM- ET-67/L82; read-out: IC50

pIC50	Compound
< 5.52	O=C1CC[C@H](C(=O)N[C@@H](CCCCCS)C(=O)Nc2cccc(C(F)(F)F)c2)N1

Test system: Giardia intestinalis
Assay: Antiprotozoan activity against Giardia lamblia G1
Assay type: functional, organism-based
Conditions: Giardia duodenalis

pIC50	Compound
4.19	O=C1CC[C@H](C(=O)N[C@@H](CCCCCS)C(=O)Nc2cccc(C(F)(F)F)c2)N1
6.24	Cc1ncc([N+](=O)[O-])n1CCO [METRONIDAZOLE]
5.37	O=C(CCCCC[C@H](NC(=O)[C@H]1CCC(=O)N1)C(=O)Nc1cccc(C(F)(F)F)c1)NO
5.33	Cc1cccc(NC(=O)[C@H](CCCCCC(=O)NO)NC(=O)[C@H]2CCC(=O)N2)c1

Test system: Plasmodium falciparum
Assay: Antiprotozoan activity against Plasmodium falciparum NF54 IEF forms
Assay type: functional, organism-based
Conditions: not given

pIC50	Compound
7.60	O=C(CCCCCCC(=O)Nc1ccccc1)NO [VORINOSTAT]
5.49	O=C1CC[C@H](C(=O)N[C@@H](CCCCCS)C(=O)Nc2cccc(C(F)(F)F)c2)N1
8.52	O=C(CCCCC[C@H](NC(=O)[C@H]1CCC(=O)N1)C(=O)Nc1cccc(C(F)(F)F)c1)NO
8.22	Cc1cccc(NC(=O)[C@H](CCCCCC(=O)NO)NC(=O)[C@H]2CCC(=O)N2)c1

Test system: Trypanosoma brucei rhodesiense
Assay: Antiprotozoan activity against Trypanosoma brucei rhodesiense STIB 900 trypomastigotes
Assay type: functional, organism-based
Conditions: not given

pIC50	Compound
5.32	O=C1CC[C@H](C(=O)N[C@@H](CCCCCS)C(=O)Nc2cccc(C(F)(F)F)c2)N1
5.38	O=C(CCCCC[C@H](NC(=O)[C@H]1CCC(=O)N1)C(=O)Nc1cccc(C(F)(F)F)c1)NO
5.26	Cc1cccc(NC(=O)[C@H](CCCCCC(=O)NO)NC(=O)[C@H]2CCC(=O)N2)c1

Test system: Leishmania donovani
Assay: Antiprotozoan activity against Leishmania donovani MHOM- ET-67/L82 amastigotes at 1 uM
Assay type: functional, organism-based
Conditions: not given

Compound	Activity
O=C(CCCCCCC(=O)Nc1ccccc1)NO [VORINOSTAT]	inactive

Test system: Plasmodium falciparum
Assay: Antiprotozoan activity against Plasmodium falciparum infected in mouse assessed as reduction in parasite growth at 50 mg/kg, ip QD for 4 days
Assay type: functional
Conditions: 96 h, route intraperitoneal

Compound	inhibition in vivo at 50 mg/kg [%]
C[C@H]1[C@@H](O)O[C@@H]2O[C@@]3(C)CC[C@H]4[C@H](C)CC[C@@H]1[C@@]24OO3 [ARTENIMOL]	99.8
O=C(CCCCC[C@H](NC(=O)[C@H]1CCC(=O)N1)C(=O)Nc1cccc(C(F)(F)F)c1)NO	63.2
Cc1cccc(NC(=O)[C@H](CCCCCC(=O)NO)NC(=O)[C@H]2CCC(=O)N2)c1	33.8

Target: T1, Histone deacetylase 11 (Homo sapiens, UniProt Q96DB2)
T1 sequence (Q96DB2 whole entry): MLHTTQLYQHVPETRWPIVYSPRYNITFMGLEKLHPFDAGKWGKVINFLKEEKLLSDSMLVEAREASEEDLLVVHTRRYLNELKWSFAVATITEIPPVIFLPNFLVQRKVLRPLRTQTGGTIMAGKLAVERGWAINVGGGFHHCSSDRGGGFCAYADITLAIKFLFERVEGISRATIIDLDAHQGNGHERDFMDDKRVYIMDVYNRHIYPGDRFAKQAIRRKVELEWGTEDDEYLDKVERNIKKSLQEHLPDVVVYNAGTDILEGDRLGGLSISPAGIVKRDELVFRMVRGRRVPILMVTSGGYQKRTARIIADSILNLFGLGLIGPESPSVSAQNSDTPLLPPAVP
Assay: Inhibition of human HDAC11 using RHKK(Ac) as substrate by fluorimetric analysis
Conditions: not given

pIC50	Compound
7.82	Cc1cccc(NC(=O)[C@H](CCCCCC(=O)NO)NC(=O)[C@H]2CCC(=O)N2)c1

Test system: L6
Assay: Cytotoxicity against rat L6 cells
Assay type: ADME, cell-based
Conditions: not given

Compound	pIC50
COc1cc([C@@H]2c3cc4c(cc3[C@H](O)[C@H]3COC(=O)[C@H]23)OCO4)cc(OC)c1OC [PODOFILOX]	7.72
O=C1CC[C@H](C(=O)N[C@@H](CCCCCS)C(=O)Nc2cccc(C(F)(F)F)c2)N1	5.57
O=C(CCCCC[C@H](NC(=O)[C@H]1CCC(=O)N1)C(=O)Nc1cccc(C(F)(F)F)c1)NO	6.20
Cc1cccc(NC(=O)[C@H](CCCCCC(=O)NO)NC(=O)[C@H]2CCC(=O)N2)c1	5.91

Test system: Trypanosoma cruzi
Assay: Antiprotozoan activity against Trypanosoma cruzi Tulahuen C4 amastigotes
Assay type: functional, organism-based
Conditions: not given

pIC50	Compound
5.00	O=C(CCCCCCC(=O)Nc1ccccc1)NO [VORINOSTAT]
4.72	O=C1CC[C@H](C(=O)N[C@@H](CCCCCS)C(=O)Nc2cccc(C(F)(F)F)c2)N1
5.67	O=C(Cn1ccnc1[N+](=O)[O-])NCc1ccccc1 [BENZNIDAZOLE]
6.01	O=C(CCCCC[C@H](NC(=O)[C@H]1CCC(=O)N1)C(=O)Nc1cccc(C(F)(F)F)c1)NO
6.07	Cc1cccc(NC(=O)[C@H](CCCCCC(=O)NO)NC(=O)[C@H]2CCC(=O)N2)c1
